The source of these data is patent US12535491B2, “Vaccine comprising protein-targeted (PT) extracellular DNA isolated from bacterial matrix” (priority 2018, dated 2026).

Assay [1] relates to SU-DHL4 target cell lines. Nature of the assay: Antibody-dependent cell-mediated cytotoxicity (ADCC) assay. The format is cell-based. Conditions: SU-DHL4 target cells. The method, then:
The efficacies of Rituximab and Rituximab-Mod were compared based on Binding to CD20-expressing target cells and antibody-dependent cell-mediated cytotoxicity [ADCC] assays.
The binding of Rituximab-Mod and rituximab was assessed on SU-DHL4 cell lines with high (1,000,000) CD20 receptor copy numbers. […] The ability of Rituximab-Mod and rituximab to mediate ADCC was assessed using SU-DHL4 target cell lines. The potency of Rituximab-Mod was higher than that of rituximab.

The subject of assay [2] is HSV-1. Format: cell-based, human Herpes Virus 1.
The test system of assay [3] is microbial amyloid. The format is cell-based, Escherichia coli.
For assay [4], the system named is amyloid producing Escherichia coli strain VT-156. The format is cell-based.
Assay [5] deals with non-amyloid producer Escherichia coli strain RA-74. The format is cell-based.
Assay [6] relates to beta-amyloid (Aβ). Nature of the assay: Amount of Aβ in the brain of Tg2576 mice injected with S. aureus bacterial DNA, with or without DNase (sandwich ELISA). Format: in vivo, mice (line Tg2576). The source says: The effect on the model of increased gut permeability in mice was studied. Increased gut permeability allows increased levels of bacterial DNA in the blood circulation, leading to the increase in the level of beta amyloid (Bala, S. et al., 2014; DiBiagio, J. R. et al., 2016). DNAse prevents the appearance of a thermostable protein formed by the extracellular DNA.
Hemizygous transgenic mice expressing familial Alzheimer's disease mutant human (line Tg2576, Hsiao et al., 1996). A total of 70 male mice were used. To identify beta-amyloid (AB) amount, one quarter brain from each animal was homogenized in 70% formic acid at a weight: volume ratio of 100 mg/ml. The homogenate was sonicated for 2 min and centrifuged at 100,000 g for 1 h. After centrifugation, the supernatant fraction was removed and neutralized with 19 vol of Tris-phosphate buffer. Samples were analyzed by a modified sandwich ELISA that detects total AB. To detect human Aβ, aliquots of homogenate were added to Nunc Maxisorb plates coated with monoclonal antibody 6E10 (Senetek) capture antibody. After incubation at 4° C. overnight, human Ab was detected by monoclonal antibody 4G8 (Senetek) conjugated to horseradish peroxidase (HRP). After washing with PBS containing 0.05% Tween 20, the bound peroxidase was detected by the TMB peroxidase kit (Kirkegaard & Perry). Plates were read at 450 nm in a standard plate reader, and unknowns were quantified by comparison to known quantities of freshly dissolved Ab40 (Bachem).
Animals were injected daily, with increasing concentrations of S. aureus bacterial DNA. Control animals were injected with sterile water. DNase (2000 Kunitz units) was administered orally or by IV on day 1.
Background: In an ELISA, binding on a coated surface is turned into a signal by an enzyme label.

On to rituximab, for which the “EC50 of target cell killing (ADCC)” value in assay [1] was about 0.01 µg/mL.
For `C=CC[C@@H]1/C=C(\C)C[C@H](C)C[C@H](OC)[C@H]2O[C@@](O)(C(=O)C(=O)N3CCCC[C@H]3C(=O)O[C@H](/C(C)=C/[C@@H]3CC[C@@H](O)[C@H](OC)C3)[C@H](C)[C@@H](O)CC1=O)[C@H](C)C[C@@H]2OC` [Tacrolimus], in assay [2], the “Number (%) of unaltered cells, Herpes virus of type I” value is reported as 30% and the “antiviral activity against the herpes virus (type I)” value is “has the antiviral activity”. In addition, the “decrease in CR binding” value in assay [3] is recorded as “about 40%”. The “Bacterial OD (570 nm)” value in assay [4] is given as 0.678. Also, the “Bacterial OD (570 nm), Escherichia coli strain RA-74” value in assay [5] is recorded as 1.382.
Regarding `CCN(CC)CCCC(C)Nc1c2ccc(Cl)cc2nc2ccc(OC)cc12` (stereo not shown) [Quinacrine], the “decrease in CR binding” value in assay [3] was “about 40%”. In addition, in assay [4], the “Bacterial OD (570 nm)” value worked out at 0.657. For the same compound, in assay [5], the “Bacterial OD (570 nm), Escherichia coli strain RA-74” value came to 1.406.
On to DNase, for which the “Total Aβ in the brain” value in assay [6] (DNA 5 mcg + DNase 5 mcg IV) was found to be 94 ± 23 pmol/mg; in assay [6] (DNA 5 mcg + DNase 5 mcg PO) it was 103 ± 35 pmol/mg; in assay [6] (DNA 20 mcg + DNase 5 mcg IV), 73 ± 12 pmol/mg; in assay [6] (DNA 20 mcg + DNase 5 mcg PO) it was 95 ± 12 pmol/mg.
Consider Pentosan polysulfate, for which, in assay [3], the “decrease in CR binding” value was “about 40%”. In assay [4], the “Bacterial OD (570 nm), Escherichia coli strain VT-56” value is reported as 0.547. In assay [5], the “Bacterial OD (570 nm), Escherichia coli strain RA-74” value is listed as 1.416.
